Experimental data: patent US20110125050A1, “Multiple-Electrode and Metal-Coated Probes” (THE TRUSTEES OF THE UNIVERSITY OF PENNSYLVANIA, priority 2004, published 2011)

Key:
HT-22 cells = assay: CNP-recorded membrane potential of HT-22 cells during ionic (K+) enrichment; assay type: cell-based, mouse; details: for depolarization: KCl added to bath
Text: Because the cell membrane is highly permeable to potassium ions (K^+), an increase or decrease in extracellular K+ concentration will, respectively, cause a resting cell to depolarize (membrane potential becoming more positive) or hyperpolarize (membrane potential becoming more negative). Utilizing CNPs, variations in membrane potential were monitored over tens of minutes. FIG. 8A is a recording of membrane potential from an HT-22 cell during perfusion intervals with normal HBSS and K+-enriched HBSS (additional 5 mM K^+). […] After approximately 2 min at higher extracellular K^+, the cell was perfused with normal HBSS and the cell slowly returned to its RMP.
Next, a CNP was used to measure changes in membrane potential during repetitive extracellular administration of KCl [FIG. 8B]. After penetrating the cell, as indicated by the arrow in FIG. 8B, the CNP measured a stable RMP under normal HBSS perfusion (Emp=−68 mV). […] Under constant perfusion in normal HBSS, the membrane potential returned to its original value after […]. The results were reproducible with high fidelity.
FIG. 8C is a representation of potential variations as a function of time during the administration of HBSS and the varied K+-enrichment of HBSS (additional 5 and 15 mM K^+). […] As normal HBSS perfusion brought the bath back to its initial K+ concentration, the cell returned to its RMP in ˜90 seconds.
Lastly, CNPs were used to electrically record a cell response to sequential pharmacological stimulation and ionic enrichment. FIG. 10B represents the opposing membrane responses to such stimuli over time. […] Once the GABA was washed away under constant HBSS perfision, the cell returned to its RMP in 60 sec. […] As excess KCl was washed away under constant HBSS perfusion, the cell returned again to its RMP after 60 sec.
Cell Culture and Preparation. The mouse hippocampal cell line HT-22 was kindly provided by Dr. David Schubert (The Salk Institute, San Diego, Calif.). Cells were grown in Dulbecco's Modified Eagle Medium (DMEM, high glucose) supplemented with 10% fetal bovine serum (FBS) and 1% antibiotics. The cells were plated on 12 mm cover slips 48 hrs prior to the electrophysiology measurements. The cells on the cover slips were incubated in HBSS (with calcium and magnesium) at room temperature for 10 min prior to measurements. The cover slips were subsequently placed in an open diamond perfision bath (Warner Instruments Corp., RC-22C) positioned on an upright microscope (Nikon eclipse E600FN, 40× water-immersion lens, Burleigh Gibraltar fixed-stage platform) located atop a vibration-isolation table. Cells were routinely perfised with HBSS at a flow rate of 1.0 mllmin.
Electrophysiology. Membrane potential measurements were recorded with an Axon AxoClamp-2A amplifier equipped with a headstage for high resistance electrodes (Axon HS2-XO.OlMU) and Digidata 1322A digitizer (Axon Instruments/Molecular Devices, Sunnyvale, Calif.). Experimental protocols were controlled and data acquired by a personal computer using the Clampex 8.2 software (Axon Instruments). CNPs were inserted into a standard electrode holder until the metal wire of the holder came in contact with the inner carbon film of the CNP. A slight positive pressure was applied through the holder's perfixion port to keep external solution from filling the hollow CNP by capillarity. A micromanipulator (Narishige MHW-3) was used to manipulate and position the CNP electrodes during the electrophysiology measurements. All the electrical measurements were carried out versus an AgIAgCl reference electrode submerged in HBSS in discontinuous current clamp @CC) mode, at zero current, with no capacitance compensation. The CNP potential was nulled (+I-2 mV) with the amplifier offset potential during immersion in HBSS before all electrical measurements. Recorded electrical measurements were not adjusted to compensate for differences in extracellular and intracellular junction potentials.

GABAA receptor = assay: CNP-recorded membrane potential of HT-22 cells during pharmacological stimulation (GABA, bicuculline); assay type: cell-based, mouse; details: for hyperpolarization from the RMP: 12 mM GABA in bath; for time for cell to return to its RMP: constant HBSS perfusion
Method: Recording Cellular Responses to Pharmacological Stimuli. In addition to monitoring predictable cell membrane potential changes caused by ionic enrichment, CNPs were utilized to electrically record cell responses to pharmacological stimuli. Y-aminobutyric acid (GABA), a principal inhibitory neurotransmitter in the mammalian central nervous system which acts as an agonist for the membrane-bound GABAA receptor, was administered. When GABA binds to the GABAA receptor, the cell hyperpolarizes as a result of Cl− ion influx due to the opening of the ligand-gated Cl− ion channel. However, the hyperpolarization can be blocked by perfusing cells with bicuculline (BIC), a competitive antagonist for the GABAA receptor which binds to the GABAA receptor and prevents it from opening even in the presence of GABA.
FIG. 10A illustrates how an HT-22 cell responded when GABA was added to the cell bath (12 mM GABA in bath, arrow).
Cell Culture and Preparation. […] Cells were grown in Dulbecco's Modified Eagle Medium (DMEM, high glucose) supplemented with 10% fetal bovine serum (FBS) and 1% antibiotics. The cells were plated on 12 mm cover slips 48 hrs prior to the electrophysiology measurements. The cells on the cover slips were incubated in HBSS (with calcium and magnesium) at room temperature for 10 min prior to measurements. The cover slips were subsequently placed in an open diamond perfision bath (Warner Instruments Corp., RC-22C) positioned on an upright microscope (Nikon eclipse E600FN, 40× water-immersion lens, Burleigh Gibraltar fixed-stage platform) located atop a vibration-isolation table. Cells were routinely perfised with HBSS at a flow rate of 1.0 mllmin.
Electrophysiology. Membrane potential measurements were recorded with an Axon AxoClamp-2A amplifier equipped with a headstage for high resistance electrodes (Axon HS2-XO.OlMU) and Digidata 1322A digitizer (Axon Instruments/Molecular Devices, Sunnyvale, Calif.). Experimental protocols were controlled and data acquired by a personal computer using the Clampex 8.2 software (Axon Instruments). CNPs were inserted into a standard electrode holder until the metal wire of the holder came in contact with the inner carbon film of the CNP. A slight positive pressure was applied through the holder's perfixion port to keep external solution from filling the hollow CNP by capillarity. A micromanipulator (Narishige MHW-3) was used to manipulate and position the CNP electrodes during the electrophysiology measurements. […] Recorded electrical measurements were not adjusted to compensate for differences in extracellular and intracellular junction potentials.

Row | SMILES | depolarization (HT-22 cells; additional 5 mM K+, RMP -57 mV, FIG. 8C) | depolarization (HT-22 cells; additional 15 mM K+, RMP -57 mV, FIG. 8C) | depolarization (HT-22 cells; additional 15 mM K+, after GABA washout, RMP -57 mV, FIG. 10B) | depolarization (HT-22 cells; additional 25 mM K+, RMP -68 mV, FIG. 8B) | time for cell to return to its RMP (HT-22 cells; after additional 5 mM K+, normal HBSS perfusion, FIG. 8C) | time for cell to return to its RMP (HT-22 cells; after additional 15 mM K+, FIG. 8C) | time for cell to return to its RMP (HT-22 cells; after additional 15 mM K+, constant HBSS perfusion, FIG. 10B) | hyperpolarization from the RMP (GABAA receptor; RMP -57 mV, FIG. 10B) | hyperpolarization from the RMP (GABAA receptor; normal HBSS perfusion, RMP -53 mV, FIG. 10A) | time for cell to return to its RMP (GABAA receptor; after 12 mM GABA washed away, FIG. 10B) | time for cell to return to its RMP (GABAA receptor; after 12 mM GABA, FIG. 10A)
1 | [Cl-].[K+] [KCl, Potassium chloride] | 10 mV | 30 mV | 25 mV | 40 mV | ~90 s | ~90 s | 60 s | – | – | – | –
2 | NCCCC(=O)O [GABA, Y-aminobutyric acid] | – | – | – | – | – | – | – | 12 mV | 10 mV | 60 s | 30 s
